This is an account of results in ChEMBL document CHEMBL1137841, “Peptidyl aldehydes as slow-binding inhibitors of dual-specificity phosphatases” (Bioorg Med Chem Lett, 2004).

Assay [1] deals with T1, Dual specificity protein phosphatase 3 (Homo sapiens, UniProt P51452). Briefly: Tested for effect on inhibition of Dual specificity protein phosphatase 3 at a dose of 2.5 mM.
Target sequence in this assay (P51452 whole entry, looked up): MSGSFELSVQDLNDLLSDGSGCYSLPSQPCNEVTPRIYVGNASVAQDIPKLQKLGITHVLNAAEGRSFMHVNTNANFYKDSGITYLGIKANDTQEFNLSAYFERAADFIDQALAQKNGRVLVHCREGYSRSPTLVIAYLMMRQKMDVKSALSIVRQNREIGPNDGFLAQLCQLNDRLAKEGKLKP
Assay [2] in a line: Tested for effect on inhibition of protein tyrosine phosphatase 1B.
Assay [3] is described as follows: Tested for effect on inhibition of DSP VH1 (dual-specificity phosphatase vaccinia open reading frame H1).
Assay [4] concerns the target T1, Dual specificity protein phosphatase 3. Briefly: Tested for effect on inhibition of Dual specificity protein phosphatase 3 and the value reported is overall equilibrium constant.
Target sequence in this assay (P51452 whole entry): as the sequence (P51452 whole entry, looked up) above
Assay [5] can be described thus: Tested for effect on inhibition of DSP VH1 (dual-specificity phosphatase vaccinia open reading frame H1) and the value reported is equilibrium constant.
Assay [6] is described as follows: Tested for effect on inhibition of DSP VH1 (dual-specificity phosphatase vaccinia open reading frame H1) and the value reported is overall equilibrium constant.

Turning to `O=C/C=C/c1ccc(C(=O)O)cc1`, the inhibition in assay [1] amounted to 40%. The IC50 in assay [2] is 970 µM; in assay [3] it was about 1000 µM.

With `NC(=O)[C@H](CCC(=O)O)NC(=O)[C@H](CCC(=O)O)NC(=O)CNC(=O)c1ccc(/C=C/C=O)cc1`, the figures for the Ki in assay [4], in assay [5] and in assay [6] were 290 µM, 190 µM and 18 µM, respectively.
